# Values of other authors, collected in patent publication US20140235496A1, “STIMULUS-ELICITED GENOMIC PROFILE MARKERS OF A NEURODEGENERATIVE CONDITION” (Blanchette Rockefeller Neurosciences Institute, priority 2011, published 2014).
# System: PKC
# Settings: shown to be effective; see US 2010/0022645
smiles,measurement,value
CCC1CC1CC1CC1CC1CC1CC1CC1CC1CC1CC1CC1CCC(=O)O (stereo not shown) [DHA-CP6],effective concentration,10 nM
